In brackets after ≈: the same amount, converted by molar mass. Values belong to the molecule of their own block, whether it stands above or below them.
What was measured:
Vibrio harveyi [1] = assay: Antimicrobial activity against Vibrio harveyi BB120 assessed as bacterial growth inhibition by bioluminescence based Quorum-Sensing assay; format: functional, organism-based
Vibrio parahaemolyticus [2] = assay: Antimicrobial activity against Vibrio parahaemolyticus assessed as bacterial growth inhibition by broth dilution assay; format: functional
Vibrio anguillarum [3] = assay: Antimicrobial activity against Vibrio anguillarum assessed as bacterial growth inhibition by broth dilution assay; format: functional
Vibrio alginolyticus = assay: Antimicrobial activity against Vibrio alginolyticus assessed as bacterial growth inhibition by broth dilution assay; format: functional
Vibrio harveyi [4] = assay: Antimicrobial activity against Vibrio harveyi QDIO-7 assessed as bacterial growth inhibition by microplate reader assay; format: functional
Vibrio vulnificus = assay: Antimicrobial activity against Vibrio vulnificus assessed as bacterial growth inhibition; format: functional
Vibrio harveyi [5] = assay: Antimicrobial activity against Vibrio harveyi assessed as bacterial growth inhibition by microplate reader assay; format: functional
Vibrio anguillarum [6] = assay: Antimicrobial activity against Vibrio anguillarum assessed as bacterial growth inhibition by microplate reader assay; format: functional
Vibrio anguillarum [7] = assay: Antimicrobial activity against Vibrio anguillarum assessed as zone of inhibition per disc at 100 ug measured after 24 hrs by disc diffusion assay; format: functional; settings: read-out: IZ
Vibrio parahaemolyticus [8] = assay: Antimicrobial activity against Vibrio parahaemolyticus assessed as bacterial growth inhibition; format: functional
Vibrio harveyi [9] = assay: Antimicrobial activity against Vibrio harveyi assessed as bacterial growth inhibition; format: functional
Vibrio anguillarum [10] = assay: Antimicrobial activity against Vibrio anguillarum QDIO-6 assessed as bacterial growth inhibition by microtiter plate assay; format: functional
Vibrio anguillarum [11] = assay: Antibacterial activity against Vibrio anguillarum assessed as bacterial growth inhibition; format: functional
Vibrio harveyi [12] = assay: Antibacterial activity against Vibrio harveyi assessed as bacterial growth inhibition; format: functional
Vibrio anguillarum [13] = assay: Antimicrobial activity against Vibrio anguillarum assessed as bacterial growth inhibition; format: functional

Compound: CCOC(=O)C[C@H](O)COC(=O)/C=C/CCl
IC50 (Vibrio harveyi [1]): 17.6 µM

Compound: CC(=O)O[C@H]1CC[C@@]2(C)[C@@H](CC[C@H]3Cc4c([nH]c5ccccc45)[C@@]32C)[C@]1(C)CC[C@@H](O)C(C)(C)O
MIC (Vibrio parahaemolyticus [2]): 12.5 µM
MIC (Vibrio anguillarum [3]): 12.5 µM
MIC (Vibrio alginolyticus): 12.5 µM

Compound: CCCCCC(=O)NCCc1ccccc1
IC50 (Vibrio harveyi [1]): 99 µM

Compound: C[C@@H]1C[C@H](O)CC(=O)C/C=C/[C@@H](O)CC(=O)O1
MIC (Vibrio parahaemolyticus [2]): 25 µM

Compound: CO[C@@H]1CC(=O)C/C=C/[C@@H](O)CC(=O)O[C@H](C)C1
MIC (Vibrio parahaemolyticus [2]): 12.5 µM

Compound: O=C1N[C@](O)(Cc2ccccc2)C(=O)N2CCC[C@H]12
zone of inhibition at 100 µg/disc (Vibrio anguillarum [7]): 20 mm

Compound: COc1cc(O)c2c(c1)C(=O)[C@@H]1C[C@](C)(O)[C@H](O)[C@H](O)[C@]1(O)C2=O
MIC (Vibrio parahaemolyticus [8]): 50 µM (≈ 16.9 µg/mL)

Compound: COc1ccc2c3c4n(c2c1)C(C=C(C)C)OOC(C)(C)C[C@@H]4N1C(=O)[C@@H]2CCCN2C(=O)[C@]1(O)[C@H]3O (some centres not stated)
MIC (Vibrio harveyi [9]): 16 µg/mL

Compound: O=C1NCc2nc3ccccc3c(=O)n2C1Cc1c[nH]c2ccccc12 (configuration not stated)
MIC (Vibrio harveyi [9]): 16 µg/mL

Compound: COc1c(Cl)c(O)cc2c1C(=O)c1c(O)cc(COC(C)=O)cc1C2=O
MIC (Vibrio parahaemolyticus [2]): 10 µM

Compound: CC[C@H](C)C[C@H](C)/C=C(\C)c1cc(=O)cc(O)o1
MIC (Vibrio parahaemolyticus [2]): 6.25 µg/mL

Compound: COC(=O)CC[C@H]1C(=O)N/C(=C\C(C)C)c2nc3ccccc3c(=O)n21
MIC (Vibrio harveyi [5]): 8 µg/mL

Compound: COc1cc(O)c2c(c1)C(=O)C1=C(C[C@@H](O)[C@@](C)(O)C1)C2=O [ALTERSOLANOL B]
MIC (Vibrio parahaemolyticus [8]): 25 µM (≈ 7.61 µg/mL)
MIC (Vibrio parahaemolyticus [2]): 2.5 µg/mL
MIC (Vibrio anguillarum [3]): 5 µg/mL

Compound: CC(C)/C=C1\NC(=O)[C@H](CCC(N)=O)n2c1nc1ccccc1c2=O [AURANTIOMIDE C]
MIC (Vibrio harveyi [5]): 8 µg/mL

Compound: O=C(O)c1cn(C2CC2)c2cc(N3CCNCC3)c(F)cc2c1=O [CIPROFLOXACIN]
MIC (Vibrio anguillarum [13]): 20 µM (≈ 6.63 µg/mL)
MIC (Vibrio harveyi [9]): 32 µg/mL
zone of inhibition at 100 µg/disc (Vibrio anguillarum [7]): 26 mm

Now from value to molecule, other results behind:

MIC (Vibrio harveyi [4]): 64 µg/mL
Compound: CC(C)/C=C1\NC(=O)[C@@H](Cc2ccccc2)n2c1nc1ccccc1c2=O

MIC (Vibrio vulnificus): 32 µg/mL (≈ 135 µM)
Compound: COc1cc(O)c2c(=O)c(C)c(C)oc2c1O

MIC (Vibrio harveyi [4]): 64 µg/mL
Compound: CC[C@H](C)[C@@H]1NC(=O)[C@@H](Cc2ccccc2)n2c1nc1c(c2=O)C=CC=CO1

MIC (Vibrio anguillarum [3]): 25 µg/mL
MIC (Vibrio alginolyticus): 25 µg/mL
Compound: C/C(=C\[C@H]1OC(=O)[C@@H](C)[C@@H]1C)[C@H]1CCC2=C3C=CC4=CC(=O)CC[C@]4(C)[C@H]3CC[C@@]21C
MIC (Vibrio parahaemolyticus [2]): 25 µg/mL

MIC (Vibrio anguillarum [3]): 1.56 µM
MIC (Vibrio alginolyticus): 1.56 µM
Compound: C=C(C)[C@@H]1COc2c(C)cc3oc4c(C[C@H](OC(C)=O)C(C)(C)O)ccc(O)c4c(=O)c3c2[C@@H]1O
MIC (Vibrio parahaemolyticus [2]): 1.56 µM

MIC (Vibrio vulnificus): 64 µg/mL (≈ 256 µM)
Compound: COc1cc(O)c2c(=O)c(C)c(C)oc2c1OC

MIC (Vibrio harveyi [5]): 4 µg/mL
MIC (Vibrio anguillarum [6]): 4 µg/mL
Compound: C[C@@]1(O)C=C[C@H]2C[C@@H](CO)CC[C@@H]2[C@@]1(C)C(=O)CCO

MIC (Vibrio harveyi [5]): 4 µg/mL
MIC (Vibrio anguillarum [6]): 4 µg/mL
Compound: C[C@@H]1CC[C@@H]2[C@H](C=C[C@](C)(O)[C@@]2(C)C(=O)CCO)C1

MIC (Vibrio anguillarum [10]): 2 µg/mL
Compound: COC(=O)[C@H](O)CS[C@@H]1CCCCCCC[C@@H](C)OC(=O)C1

MIC (Vibrio harveyi [9]): 50 µM
Compound: Nc1ccccc1C(=O)C[C@H]1NC(=O)[C@H]2CCCN2C1=O

MIC (Vibrio anguillarum [11]): 0.5 µg/mL (≈ 2.57 µM)
MIC (Vibrio harveyi [12]): 32 µg/mL (≈ 165 µM)
Compound: C[C@@H]1Cc2ccc(O)c(O)c2C(=O)O1

MIC (Vibrio harveyi [5]): 8 µg/mL
Compound: CC(C)/C=C1/NC(=O)[C@H](CCC(N)=O)n2c1nc1ccccc1c2=O

MIC (Vibrio harveyi [9]): 16 µg/mL
Compound: O=C1N[C@@H]2c3nc4ccccc4c(=O)n3[C@H]1CC21C(=O)Nc2ccccc21 (some centres not stated)

MIC (Vibrio anguillarum [10]): 4 µg/mL
Compound: COC(=O)[C@H](O)CS[C@H]1CC(=O)O[C@H](C)CCCCCC[C@@H]1O

MIC (Vibrio harveyi [5]): 4 µg/mL
MIC (Vibrio anguillarum [6]): 4 µg/mL
Compound: C[C@@]12C=C[C@@H]3C[C@H](CO)CC[C@@H]3[C@]1(C)C(=O)C=CO2

MIC (Vibrio harveyi [12]): 0.5 µg/mL (≈ 2.48 µM)
Compound: CCCCc1cc(O)c2ccccc2n1

MIC (Vibrio anguillarum [3]): 1.56 µM
MIC (Vibrio alginolyticus): 1.56 µM
Compound: C=C(C)[C@H]1COc2c(C)cc3oc4c([C@@H](OC)[C@@H](O)C(=C)C)ccc(O)c4c(=O)c3c2[C@@H]1O
MIC (Vibrio parahaemolyticus [2]): 1.56 µM

MIC (Vibrio anguillarum [11]): 0.5 µg/mL (≈ 2.27 µM)
MIC (Vibrio harveyi [12]): 32 µg/mL (≈ 145 µM)
Compound: C[C@H](O)[C@H](Cl)C1=C[C@H](O)[C@@H](C)OC1=O [CHLOROHYDROASPYRONE A]

MIC (Vibrio anguillarum [11]): 0.5 µg/mL (≈ 2.27 µM)
MIC (Vibrio harveyi [12]): 32 µg/mL (≈ 145 µM)
Compound: C[C@H](Cl)[C@@H](O)C1=C[C@H](O)[C@@H](C)OC1=O [CHLOROHYDROASPYRONE B]

MIC (Vibrio anguillarum [11]): 0.5 µg/mL (≈ 2.94 µM)
MIC (Vibrio harveyi [12]): 32 µg/mL (≈ 188 µM)
Compound: C=C(C)C1(O)OC(=O)C=C1OC (configuration not stated) [PENICILLIC ACID]

MIC (Vibrio anguillarum [3]): 1.56 µM
MIC (Vibrio alginolyticus): 1.56 µM
Compound: C=C(C)[C@H]1COc2c(C)cc3oc4c(C[C@H](O)C(C)(C)O)ccc(O)c4c(=O)c3c2[C@@H]1O [TAJIXANTHONEHYDRATE]
MIC (Vibrio parahaemolyticus [2]): 1.56 µM
